# Peptide text beside a SMILES is read from it.
# Key:
# Assay in all cases: Fluorescence polarization SH3 domain-PRP binding
# [1] = target: T1, SNX9 SH3 domain (aa 1-62) (Homo sapiens, UniProt Q9Y5X1); details: FP, 0.2 µM fluorescein-labeled peptide, SH3 domain 0-200 µM, Tris/HCl pH 7.5, 25 °C, quadratic fit
# T1 construct: 1-62; GST (N); made in house; host or cells: Escherichia coli CodonPlus, Rosetta, BL21(DE3)
# Description: (§1) The interaction between fluorescein-labeled proline-rich peptides (0.2 µM) and increasing concentrations of SH3 domains (ranging from 0 to 200 µM) was measured in a buffer (containing 30 mM Tris/HCl (pH 7.5), 5 mM MgCl2, and 3 mM DTT at 25 °C) in a total volume of 200 µL using a Fluoromax 4 fluorimeter in polarization mode and a quartz glass fluorescence cuvette (Hellma Ultra-Micro Cuvette 105.250-QS, Thermo Fisher Scientific, Waltham, MA USA). Excitation was performed at 470 nm and emission was measured at 560 nm. Dissociation constants (Kd) were determined by fitting the concentration-dependent binding curve to a quadratic ligand binding equation.
# (§2) Fluorescence polarization measurements were performed to determine the binding affinities of SH3 domain–PRP interaction pairs from the dot blot analysis. SH3 proteins were titrated at increasing concentrations against fluorescent PRPs, which were kept at a constant concentration of 0.2 µM. GRB2-2^W193K, which is defective in the binding of PRPs such as RP1, was used as a negative control as previously described. […] The resulting data (Figure S6) allowed the evaluation of equilibrium dissociation constants (Kd) for 45 interactions between the SH3 domains and the PRPs (Figure 2B; Table S6).
# (§3) Figure S6. Interactions of the SH3 domains with fluorescent PRPs measured by fluorescence polarization.
# (§4) Fluorescent peptides (0.2 µM) were titrated with increasing concentrations of the corresponding SH3 domains.
# (§5) GRB2-2W193K, defective in the binding of PRPs such as RP1, was used as a negative control as previously described. The x-axis represents SH3 domain concentrations as GST fusion proteins in µM, while the y-axis represents fluorescence polarization. The equilibrium dissociation constants (Kd) for the respective measurements were determined by fitting the titration curves to a quadratic ligand-binding equation (solid lines). All Kd values are […]
# (§6) Error bars are derived from the fitting errors.
# [2] = target: T2, NCK1-2 SH3 domain (aa 106-165) (Homo sapiens, UniProt P16333); details: FP, 0.2 µM fluorescein-labeled peptide, SH3 domain 0-200 µM, Tris/HCl pH 7.5, 25 °C, quadratic fit, read-out: Kd
# T2 construct: 106-165; GST (N); made in house; host or cells: Escherichia coli CodonPlus, Rosetta, BL21(DE3)
# Description: as §1, §2, §3, §4, §5, §6
# [3] = target: T3, SH3PXD2A-1 SH3 domain (aa 166-225) (Homo sapiens, UniProt Q5TCZ1); details: FP, 0.2 µM fluorescein-labeled peptide, SH3 domain 0-200 µM, Tris/HCl pH 7.5, 25 °C, quadratic fit
# T3 construct: 166-225; GST (N); made in house; host or cells: Escherichia coli CodonPlus, Rosetta, BL21(DE3)
# T3 sequence (Q5TCZ1 166-225): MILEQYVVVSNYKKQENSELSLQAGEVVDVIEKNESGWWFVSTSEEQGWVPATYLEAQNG
# Description: as §1, §2, §3, §4, §5, §6
# [4] = target: T4, NCK1-3 SH3 domain (aa 190–252) (Homo sapiens, UniProt P16333); details: NCK1-3 (wt); FP, 0.2 µM fluorescein-labeled peptide, SH3 domain 0-200 µM, Tris/HCl pH 7.5, 25 °C, quadratic fit; read-out: Kd
# T4 construct: 190–252; GST (N); made in house; host or cells: Escherichia coli CodonPlus, Rosetta, BL21(DE3)
# Description: as §1, §2, §3, §4, §5, §6
# [5] = target: T5, NPHP1 SH3 domain (Homo sapiens, UniProt O15259); details: FP, 0.2 µM fluorescein-labeled peptide, SH3 domain 0-200 µM, Tris/HCl pH 7.5, 25 °C, quadratic fit
# T5 construct: GST (N); made in house; host or cells: Escherichia coli CodonPlus, Rosetta, BL21(DE3)
# T5 sequence (O15259 152-212 limits assumed): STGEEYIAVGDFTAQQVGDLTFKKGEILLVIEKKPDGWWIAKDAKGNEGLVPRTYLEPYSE
# Description: as §1, §2, §3, §4, §5, §6
# [6] = target: T6, ITSN1-4 SH3 domain (aa 1070-1138) (Homo sapiens, UniProt Q15811); details: FP, 0.2 µM fluorescein-labeled peptide, SH3 domain 0-200 µM, Tris/HCl pH 7.5, 25 °C, quadratic fit
# T6 construct: 1070-1138; GST (N); made in house; host or cells: Escherichia coli CodonPlus, Rosetta, BL21(DE3)
# T6 sequence (Q15811 1070-1138): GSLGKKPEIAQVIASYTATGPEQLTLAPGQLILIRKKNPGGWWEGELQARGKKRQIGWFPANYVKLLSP
# Description: as §1, §2, §3, §4, §5, §6
# [7] = target: T7, SH3GLB1 SH3 domain (aa 305-365) (Homo sapiens, UniProt Q9Y371); details: FP, 0.2 µM fluorescein-labeled peptide, SH3 domain 0-200 µM, Tris/HCl pH 7.5, 25 °C, quadratic fit
# T7 construct: 305-365; GST (N); made in house; host or cells: Escherichia coli CodonPlus, Rosetta, BL21(DE3)
# T7 sequence (Q9Y371 305-365): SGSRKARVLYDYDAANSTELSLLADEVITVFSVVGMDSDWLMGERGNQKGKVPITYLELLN
# Description: as §1, §2, §3, §4, §5, §6
# [8] = target: T8, SORBS1-1 SH3 domain (aa 793-852) (Homo sapiens, UniProt Q9BX66); details: FP, 0.2 µM fluorescein-labeled peptide, SH3 domain 0-200 µM, Tris/HCl pH 7.5, 25 °C, quadratic fit
# T8 construct: 793-852; GST (N); made in house; host or cells: Escherichia coli CodonPlus, Rosetta, BL21(DE3)
# T8 sequence (Q9BX66 793-852): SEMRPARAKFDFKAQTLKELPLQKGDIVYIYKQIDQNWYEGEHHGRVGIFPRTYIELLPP
# Description: as §1, §2, §3, §4, §5, §6
# [9] = target: T9, RASA1 SH3 domain (aa 279–341) (Homo sapiens, UniProt P20936); details: FP, 0.2 µM fluorescein-labeled peptide, SH3 domain 0-200 µM, Tris/HCl pH 7.5, 25 °C, quadratic fit
# T9 construct: 279–341; GST (N); made in house; host or cells: Escherichia coli CodonPlus, Rosetta, BL21(DE3)
# T9 sequence (P20936 279-341): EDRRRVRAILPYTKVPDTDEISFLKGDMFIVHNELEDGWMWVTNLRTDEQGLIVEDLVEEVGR
# Description: as §1, §2, §3, §4, §5, §6
# [10] = target: T10, SRC SH3 domain (aa 77-140) (Homo sapiens, UniProt P12931); details: FP, 0.2 µM fluorescein-labeled peptide, SH3 domain 0-200 µM, Tris/HCl pH 7.5, 25 °C, quadratic fit
# T10 construct: 77-140; GST (N); made in house; host or cells: Escherichia coli CodonPlus, Rosetta, BL21(DE3)
# Description: as §1, §2, §3, §4, §5, §6
# [11] = target: T11, RIMBP3B-1 SH3 domain (aa 832-899) (Homo sapiens, UniProt A6NNM3); details: FP, 0.2 µM fluorescein-labeled peptide, SH3 domain 0-200 µM, Tris/HCl pH 7.5, 25 °C, quadratic fit
# T11 construct: 832-899; GST (N); made in house; host or cells: Escherichia coli CodonPlus, Rosetta, BL21(DE3)
# T11 sequence (A6NNM3 832-899): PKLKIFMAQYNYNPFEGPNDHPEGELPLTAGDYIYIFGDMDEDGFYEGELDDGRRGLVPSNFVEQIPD
# Description: as §1, §2, §3, §4, §5, §6
# [12] = target: T12, ITSN1-5 SH3 domain (aa 1155-1214) (Homo sapiens, UniProt Q15811); details: FP, 0.2 µM fluorescein-labeled peptide, SH3 domain 0-200 µM, Tris/HCl pH 7.5, 25 °C, quadratic fit
# T12 construct: 1155-1214; GST (N); made in house; host or cells: Escherichia coli CodonPlus, Rosetta, BL21(DE3)
# T12 sequence (Q15811 1155-1214): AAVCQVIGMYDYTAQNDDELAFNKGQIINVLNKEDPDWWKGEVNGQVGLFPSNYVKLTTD
# Description: as §1, §2, §3, §4, §5, §6
# T1 sequence (Q9Y5X1 1-62): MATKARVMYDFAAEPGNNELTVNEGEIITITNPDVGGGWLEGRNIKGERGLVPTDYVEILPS
# T10 sequence (P12931 77-140 limits assumed): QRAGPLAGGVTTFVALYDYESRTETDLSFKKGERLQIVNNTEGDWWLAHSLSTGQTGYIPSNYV
Kd [1],Kd [2],Kd [3],Kd [4],Kd [5],Kd [6],Kd [7],Kd [8],Kd [9],Kd [10],Kd [11],Kd [12],Structure (SMILES)
> 200 µM,> 200 µM,44 µM,> 200 µM,> 200 µM,> 200 µM,> 200 µM,> 200 µM,> 200 µM,> 200 µM,21 µM,> 200 µM,CC(C)C[C@H](NC(=O)[C@@H](NC(=O)[C@@H](N)C(C)C)[C@@H](C)O)C(=O)N1CCC[C@H]1C(=O)N[C@@H](Cc1c[nH]cn1)C(=O)NCC(=O)N1CCC[C@H]1C(=O)N[C@@H](CCCNC(=N)N)C(=O)N[C@@H](CO)C(=O)N[C@@H](C)C(=O)O [Peptide P2] (H-VTLPHGPRSA-OH)
> 200 µM,2 µM,> 200 µM,24.6 µM,> 200 µM,> 200 µM,> 200 µM,> 200 µM,> 200 µM,> 200 µM,> 200 µM,> 200 µM,"CC(C)[C@H](N)C(=O)N1CCC[C@H]1C(=O)N[C@H](C(=O)N1CCC[C@H]1C(=O)N1CCC[C@H]1C(=O)N1CCC[C@H]1C(=O)N[C@H](C(=O)N1CCC[C@H]1C(=O)N1CCC[C@H]1C(=O)N[C@@H](CCCNC(=N)N)C(=O)N[C@@H](CCCNC(=N)N)C(=O)N[C@@H](CCCNC(=N)N)C(=O)O)C(C)C)C(C)C [RP1, reference compound]"
> 200 µM,> 200 µM,18 µM,> 200 µM,> 200 µM,> 200 µM,> 200 µM,> 200 µM,> 200 µM,2 µM,> 200 µM,> 200 µM,CC[C@H](C)[C@H](NC(=O)[C@H](CCCCN)NC(=O)[C@H](CO)NC(=O)[C@@H]1CCCN1C(=O)[C@H](CO)NC(=O)[C@H](CO)NC(=O)[C@H](CCC(=O)O)NC(=O)[C@H](C)NC(=O)[C@@H]1CCCN1C(=O)[C@H](C)NC(=O)[C@H](CO)NC(=O)[C@H](CCC(=O)O)NC(=O)[C@@H]1CCCN1C(=O)[C@H](CCCNC(=N)N)NC(=O)[C@H](CCCNC(=N)N)NC(=O)[C@H](CCCNC(=N)N)NC(=O)[C@@H]1CCCN1C(=O)[C@@H]1CCCN1C(=O)[C@@H](NC(=O)[C@@H]1CCCN1C(=O)[C@@H]1CCCN1C(=O)[C@@H]1CCCN1C(=O)[C@@H](NC(=O)[C@@H]1CCCN1C(=O)[C@@H](NC(=O)[C@@H](N)CCC(=O)O)C(C)C)C(C)C)C(C)C)C(=O)O [Peptide P3] (H-EVPVPPPVPPRRRPESAPAESSPSKI-OH)
